In PubChem BioAssay (NCI):
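Five compound concentrations were applied to cells in 96-well plates for 48 hours; endpoints were derived by simple linear interpolation of the resulting dose-response curve. Here, GI50 denotes the concentration required for 50% inhibition of growth. The concentration for full growth arrest is given as TGI.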

Legend:
Test in all cases: NCI anticancer screen, dose series, 48 h
SK-MEL-5 melanoma = system: SK-MEL-5 melanoma
HOP-92 NSCLC = system: HOP-92 NSCLC
ACHN renal = system: ACHN renal
MOLT-4 leukemia = system: MOLT-4 leukemia
MALME-3M melanoma = system: MALME-3M melanoma
K-562 leukemia = system: K-562 leukemia
OVCAR-8 ovarian = system: OVCAR-8 ovarian
NCI-H226 lung = system: NCI-H226 lung
U251 CNS = system: U251 CNS
SR leukemia = system: SR leukemia

SMILES | TGI (SK-MEL-5 melanoma) | TGI (HOP-92 NSCLC) | TGI (ACHN renal) | TGI (MOLT-4 leukemia) | TGI (MALME-3M melanoma) | TGI (K-562 leukemia) | TGI (OVCAR-8 ovarian) | TGI (NCI-H226 lung) | TGI (U251 CNS) | TGI (SR leukemia) | GI50 (SK-MEL-5 melanoma) | GI50 (HOP-92 NSCLC) | GI50 (ACHN renal) | GI50 (MOLT-4 leukemia) | GI50 (MALME-3M melanoma) | GI50 (K-562 leukemia) | GI50 (OVCAR-8 ovarian) | GI50 (NCI-H226 lung) | GI50 (U251 CNS) | GI50 (SR leukemia)
O=C(/C=C/c1ccccc1)c1ccc(NCc2nc3ccccc3[nH]2)cc1 | 14.2 µM | 22.5 µM | 20.4 µM | 32.3 µM | 26.9 µM | > 26.1 µM | 14.9 µM | 16.8 µM | 5.17 µM | > 35.3 µM |  |  |  |  |  |  |  |  |  | 
CNC(=O)c1nn(C)c2c1C(C)(C)Cc1cnc(Nc3ccc(N4CCN(C)CC4)cc3)nc1-2 | > 10 µM | > 2.35 µM | 8.62 µM | > 5.29 µM | > 9.24 µM | > 7.77 µM | > 10 µM | > 8.57 µM | > 10 µM | > 5.71 µM | 7.44 µM | 0.174 µM | 0.424 µM | 0.546 µM | 0.431 µM | 0.356 µM | 3.17 µM | 0.958 µM | 0.846 µM | 0.452 µM
Cc1cc(I)cc(CN(C)CCCN2CCCC2)c1O | 26 µM | 59.1 µM | 65.4 µM | 39.1 µM | 33.1 µM | 33.2 µM | > 100 µM | > 100 µM | 49.5 µM | 36.6 µM | 13.1 µM | 15.8 µM | 23.1 µM | 16.1 µM | 16.6 µM | 14.5 µM | 45.3 µM | 30.7 µM | 19.4 µM | 7.52 µM
CCOC(=O)/C(C#N)=C\C=C(/Cl)c1ccc(Cl)cc1 | 39 µM | 47.2 µM | 32.6 µM | > 100 µM | 40.5 µM | > 64.3 µM | 42.1 µM | 83.2 µM | 32.1 µM | > 100 µM | 18.4 µM | 17.5 µM | 18.3 µM | 8.75 µM | 18.6 µM | 12.9 µM | 19.4 µM | 27.4 µM | 17.6 µM | 4.78 µM
O=[N+]([O-])c1ccc(Sc2c3ccccc3nc3cc(Cl)ccc23)cc1 | > 100 µM | > 100 µM |  | > 100 µM | > 100 µM | > 100 µM | > 100 µM | > 100 µM | > 100 µM | 68.1 µM | > 100 µM |  |  |  | > 100 µM | > 100 µM | > 100 µM | > 100 µM | > 100 µM | 
Cn1cc(C2=C(c3cn(C4CCN(Cc5ccccn5)CC4)c4ccccc34)C(=O)NC2=O)c2ccccc21 | > 25.9 µM | > 100 µM | > 100 µM | > 100 µM | > 100 µM | > 100 µM | > 100 µM |  | > 100 µM | > 100 µM | 2.94 µM | 83.2 µM | 9.36 µM | 3.52 µM | > 23.4 µM | 3.87 µM | 6.23 µM |  | 3.74 µM | 3.19 µM
CN1/C(=C\C=C\C2=[N+](C)c3ccccc3C2(C)C)C(C)(C)c2ccccc21 | 0.151 µM | 0.58 µM | 3.15 µM | 1.87 µM | 0.818 µM | 1.39 µM | 7.52 µM | 2.39 µM | 5.21 µM | 4.44 µM | 0.0322 µM | 0.128 µM | 0.268 µM | 0.146 µM | 0.0936 µM | < 0.0156 µM | 0.101 µM | 0.103 µM | 0.0369 µM | 0.194 µM
O=C(N/N=C/c1ccccc1O)c1ccccc1 | > 100 µM | > 100 µM | 54.2 µM | > 100 µM | 46.7 µM | > 100 µM | > 100 µM | 17.4 µM | > 100 µM | 28.4 µM | 2.97 µM | 5.84 µM | 2.08 µM | 0.503 µM | 4.26 µM | 3.59 µM | 3.46 µM | 1.94 µM | 1.94 µM | 1.79 µM
O=C(Nc1ccc(Cl)c(Cl)c1)NS(=O)(=O)c1cnccc1Oc1ccc(F)cc1 | 13.5 µM | 8.47 µM | > 100 µM | 8.58 µM | 7.55 µM | > 100 µM | > 100 µM | > 100 µM | 37.2 µM | 10.2 µM | 3.63 µM | 2.77 µM | 3.22 µM | 2.68 µM | 2.53 µM | 3.27 µM | 4.82 µM | 9.77 µM | 3.42 µM | 2.55 µM
CCCCCCCCCCCCCCCC[N+]1(C)CCOCC1 |  | 2.64 µM | 13.9 µM | 3.69 µM | 6.71 µM |  | 8.84 µM |  | 2.34 µM | 4.66 µM |  | 0.499 µM | 2.93 µM | 1.6 µM | 2.38 µM |  | 2.53 µM |  | 1.06 µM | 1.28 µM
CCNC(=O)COc1ccc(Cl)cc1Cl | > 100 µM | > 100 µM | > 100 µM | > 100 µM | > 100 µM | > 100 µM | > 100 µM | > 100 µM | > 100 µM | > 100 µM |  |  |  |  |  |  |  |  |  | 
O=c1oc2ccc(I)cc2c(=O)n1-c1ccc(Cl)cc1F | 2.19 µM | 0.726 µM | 12.8 µM | 6.81 µM | 3.49 µM | > 100 µM | 24.9 µM | 8.53 µM | 24.5 µM | > 100 µM | 0.751 µM | 0.181 µM | 1.62 µM | 2.24 µM | 0.516 µM | 0.658 µM | 1.66 µM | 1.96 µM | 1.51 µM | 1.13 µM
COC(=O)C1(C(=O)OC)CC(=O)c2cc3c(cc2-c2c(cc(OC)c(OC)c2OC)C1)OCO3 | > 211 µM | 167 µM | > 211 µM | > 211 µM | > 211 µM | > 211 µM | > 211 µM | > 211 µM | > 211 µM | > 211 µM |  |  |  |  |  |  |  |  |  | 
CC(=O)N1CCC2(c3ccccc3N(C(C)=O)C2c2ccc(O)cc2)C1C(=O)O (configuration not stated) | > 100 µM | > 100 µM | > 100 µM | > 100 µM | > 100 µM | > 100 µM | > 100 µM | > 100 µM | > 100 µM | > 100 µM |  |  |  |  |  |  |  |  |  | 
